In patent US20030162777A1, “Novel N-acylated heterocycles” (Recordati S.A., priority 2001, published 2003):

These molecules were tested against T1, human 5HT1A-serotonergic receptor (Homo sapiens, UniProt P08908) (assay: Radioligand binding to recombinant 5-HT1A receptors). Details: [3H]8-OH-DPAT 1 nM, membranes of HeLa cells with human 5-HT1A receptor; Ki from IC50 by Cheng & Prusoff; read-out: Binding affinity for 5HT1A receptors, Ki.
T1 construct: expressed in transfected cells; host or cells: HeLa (human cell line), stably transfected; cell membranes used
T1 sequence (P08908 1-422): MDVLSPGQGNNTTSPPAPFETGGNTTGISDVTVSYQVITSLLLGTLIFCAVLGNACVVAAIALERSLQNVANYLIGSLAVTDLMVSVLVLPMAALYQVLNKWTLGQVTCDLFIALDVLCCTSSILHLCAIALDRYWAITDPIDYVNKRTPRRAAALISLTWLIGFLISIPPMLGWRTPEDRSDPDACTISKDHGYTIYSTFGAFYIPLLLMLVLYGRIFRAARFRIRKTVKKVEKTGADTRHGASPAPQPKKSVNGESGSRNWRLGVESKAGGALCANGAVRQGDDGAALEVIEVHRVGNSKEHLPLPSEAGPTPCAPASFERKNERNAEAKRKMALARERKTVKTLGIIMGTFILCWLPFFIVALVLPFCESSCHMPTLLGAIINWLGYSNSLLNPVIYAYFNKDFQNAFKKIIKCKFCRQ
In short: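 Displacement of 1 nM [3H]8-OH-DPAT (30 min, 30 °C, Tris-HCl pH 7.4 with MgCl2 and pargyline) from recombinant human 5-HT1A in transfected HeLa membranes, stopped by filtration. Specific binding defined against 10 μM 5-HT; IC50 by nonlinear fitting, then Ki by Cheng–Prusoff.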

Molecule | Ki [nM]
O=C(C1CCC1)N1c2ccccc2CCC1CN1CCN(c2nccc3ccccc23)CC1 (stereo not drawn) [Example 75A10, 1-(1-Cyclobutanecarbonyl-1,2,3,4-tetrahydroquinolin-2-ylmethyl)-4-(1-isoquinolinyl)piperazine] | 26.4
COc1cc(F)ccc1N1CCN(CC2CCc3cc(C)ccc3N2C(=O)CC2CCCCC2)CC1 (stereo not drawn) [Example 73A6, 1-(1-Cyclohexylacetyl-1,2,3,4-tetrahydroquinolin-6-methyl-2-ylmethyl)-4-(4-fluoro-2-methoxyphenyl)piperazine] | 18.1
COc1cc(F)ccc1N1CCN(CC2CCc3ccccc3N2C(=O)Cc2ccsc2)CC1 (stereo not drawn) [Example 74A9, 1-(4-Fluoro-2-methoxyphenyl)-4-[1-(3-thienylacetyl)-1,2,3,4-tetrahydroquinolin-2-ylmethyl]piperazine] | 38.3
CC(C)(C)OC(=O)N1CCC[C@@H]1C(=O)N1c2ccccc2CCC1CN1CCN(c2cccc3[nH]ccc23)CC1 (stereo partly drawn) [Example 71A4, 1-[1-(1-tert-Butoxycarbonyl-(2R)-pyrrolidin-2yl)carbonyl-1,2,3,4-tetrahydroquinoline-2-ylmethyl]-4-(4-indolyl)piperazine] | 45.9
O=C(C1CCCCC1)N1c2ccccc2CCC1CN1CCC(c2c(F)cccc2Cl)CC1 (stereo not drawn) [Example 72A53, 4-(2-Chloro-6-fluorophenyl)-1-(1-cyclohexanecarbonyl-1,2,3,4-tetrahydroquinolin-2-ylmethyl)piperidine] | 6.1
O=C(C1CCCCC1)N1c2ccccc2CCC1CN1CCN(c2cccc3nonc23)CC1 (stereo not drawn) [Example 60A8, 1-[4-(2,1,3-Benzoxadiazolyl)]-4-(1-cyclohexanecarbonyl-1,2,3,4-tetrahydroquinoline-2-ylmethyl)piperazine] | 12.2
COc1cc(F)ccc1N1CCN(CC2CCc3c(Cl)cccc3N2C(=O)C2CCCCC2)CC1 (stereo not drawn) [Example 55, 1-(5-Chloro-1-cyclohexanecarbonyl-1,2,3,4-tetrahydroquinoline-2-ylmethyl)-4-(4-fluoro-2-methoxyphenyl)piperazine] | 2.4
COc1cc(F)ccc1N1CCN(CC2CCc3ccccc3N2C(=O)CC(C)C)CC1 (stereo not drawn) [Example 74A, 1-(4-Fluoro-2-methoxyphenyl)-4-[1-(3-methylbutanoyl)-1,2,3,4-tetrahydroquinolin-2-ylmethyl]piperazine] | 17.6
O=C(CCOCc1ccccc1)N1c2ccccc2CCC1CN1CCN(c2cccc3[nH]ccc23)CC1 (stereo not drawn) [Example 9, 1-[1-(3-Benzyloxypropionyl)-1,2,3,4-tetrahydroquinoline-2-ylmethyl]-4-(4-indolyl)piperazine] | 9.6
O=C(C1CCCCC1)N1c2ccccc2CCC1CN1CCN(c2c(Cl)cncc2Cl)CC1 (stereo not drawn) [Example 72A66, 1-(1-Cyclohexanecarbonyl-1,2,3,4-tetrahydroquinolin-2-ylmethyl)-4-(3,5-dichloropyridin-4-yl)piperazine] | 10.2
O=S(=O)(c1cccs1)N1c2ccccc2CCC1CN1CCN(c2cccc3[nH]ccc23)CC1 (stereo not drawn) [Example 70A1, 1-(4-Indolyl)-4-[1-(2-thienylsulphonyl)-1,2,3,4-tetrahydroquinoline-2-ylmethyl]piperazine] | 18.8
O=C(C1CCCCC1)N1c2ccccc2CCC1CN1CCC(c2ccccc2C(F)(F)F)CC1 (stereo not drawn) [Example 72A81, 1-(1-Cyclohexanecarbonyl-1,2,3,4-tetrahydroquinolin-2-ylmethyl)-4-(2-trifluoromethylphenyl)piperidine] | 25.5
N#Cc1ccc(C(=O)N2c3ccccc3CCC2CN2CCN(c3nccc4ccccc34)CC2)cc1 (stereo not drawn) [Example 75A6, 1-[1-(4-Cyanobenzoyl)-1,2,3,4-tetrahydroquinolin-2-ylmethyl]-4-(1-isoquinolinyl)piperazine] | 4.3
COc1cc(Cl)ccc1N1CCN(CC2CCc3ccccc3N2C(=O)C2CCCCC2)CC1 (stereo not drawn) [Example 62A2, 1-(4-Chloro-2-methoxyphenyl)-4-(1-cyclohexanecarbonyl-1,2,3,4-tetrahydroquinoline-2-ylmethyl)piperazine] | 15.6
CC(C)C(=O)N1c2ccccc2CCC1CN1CCN(c2cccc3[nH]ccc23)CC1 (stereo not drawn) [Example 68A9, 1-(4-Indolyl)-4-[1-(2-methylpropionyl)-1,2,3,4-tetrahydroquinoline-2-ylmethyl]piperazine] | 24.6
O=C(C1CCCCC1)N1c2ccc(Br)cc2CCC1CN1CCN(c2cccc3[nH]ccc23)CC1 (stereo not drawn) [Example 34, 1-(6-Bromo-1-cyclohexanecarbonyl-1,2,3,4-tetrahydroquinoline-2-ylmethyl)-4-(4-indolyl)piperazine] | 18.9
O=C(COc1ccccc1)N1c2ccccc2CCC1CN1CCN(c2cccc3[nH]ccc23)CC1 (stereo not drawn) [Example 68A42, 1-(4-Indolyl)-4-[1-(2-phenoxyacetyl)-1,2,3,4-tetrahydroquinoline-2-ylmethyl]piperazine] | 19.8

Molecule | Ki [nM]
Cc1ccccc1NC(=O)N1c2ccccc2CCC1CN1CCN(c2cccc3c2OCCO3)CC1 (stereo not drawn) [Example 76A12, 1-(2,3-Dihydrobenzo[1,4]dioxin-5-yl)-4-[1-(2-methylphenylaminocarbonyl)-1,2,3,4-tetrahydroquinolin-2-ylmethyl]piperazine] | 8
O=C(C1CCCCC1)N1c2ccccc2CCC1CN1CCC(c2cccc(Cl)c2)CC1 (stereo not drawn) [Example 72A68, 4-(3-Chlorophenyl)-1-(1-cyclohexanecarbonyl-1,2,3,4-tetrahydroquinolin-2-ylmethyl)piperidine] | 38.6
1-(2-Cyclopropylacetyl-1,2,3,4-tetrahydroquinoline-2-ylmethyl)-4-(4-indolyl)piperazine [Example 68A11] | 6.8
COc1cc(F)ccc1N1CCN(CC2CCc3ccc(Cl)cc3N2C(=O)C2CCCCC2)CC1 (stereo not drawn) [Example 57, 1-(7-Chloro-1-cyclohexanecarbonyl-1,2,3,4-tetrahydroquinoline-2-ylmethyl)-4-(4-fluoro-2-methoxyphenyl)piperazine] | 2.3
CC(C)(C)NC(=O)N1c2ccccc2CCC1CN1CCN(c2nccc3ccccc23)CC1 (stereo not drawn) [Example 75A15, 1-(1-Isoquinolinyl)-4-[1-(1,1-Dimethyethylaminocarbonyl)-1,2,3,4-tetrahydroquinolin-2-ylmethyl]piperazine] | 27.7
O=C(c1ccc[nH]1)N1c2ccccc2CCC1CN1CCN(c2nccc3ccccc23)CC1 (stereo not drawn) [Example 75A3, 1-(1-Isoquinolinyl)-4-[1-(2-pyrrolylcarbonyl)-1,2,3,4-tetrahydroquinolin-2-ylmethyl]piperazine] | 14
CC(=O)N1CCC(C(=O)N2c3ccccc3CCC2CN2CCN(c3cccc4c3OCCO4)CC2)CC1 (stereo not drawn) [Example 76A15, 1-[1-(1-acetyl-4-piperidinecarbonyl)-1,2,3,4-tetrahydroquinolin-2-ylmethyl]-4-(2,3-dihydrobenzo[1,4]dioxin-5-yl)piperazine] | 8.1
O=C(N1CCOCC1)N1c2ccccc2CCC1CN1CCN(c2cccc3[nH]ccc23)CC1 (stereo not drawn) [Example 14, 1-[1-(4-Morpholinocarbonyl)-1,2,3,4-tetrahydroquinoline-2-ylmethyl]-4-(4-indolyl)piperazine] | 82
O=C(Cc1cccs1)N1c2ccccc2CCC1CN1CCN(c2nccc3ccccc23)CC1 (stereo not drawn) [Example 75A8, 1-(1-Isoquinolinyl)-4-[1-(2-thienyacetyl)-1,2,3,4-tetrahydroquinolin-2-ylmethyl]piperazine] | 17
COCCC(=O)N1c2ccccc2CCC1CN1CCN(c2ccccc2OCC(F)(F)F)CC1 (stereo not drawn) [Example 7, 1-[1-(3-Methoxypropionyl)-1,2,3,4-tetrahydroquinoline-2-ylmethyl]-4-[2-(2,2,2-trifluoroethoxy)phenyl]piperazine] | 31.2
O=C(N1CCCC1)N1c2ccccc2CCC1CN1CCN(c2cccc3[nH]ccc23)CC1 (stereo not drawn) [Example 33, 1-(4-Indolyl)-4-(1-pyrrolidinecarbonyl-1,2,3,4-tetrahydroquinoline-2-ylmethyl)piperazine] | 47.7
O=C(c1ccc[nH]1)N1c2ccccc2CCC1CN1CCN(c2cccc3[nH]ccc23)CC1 (stereo not drawn) [Example 68A, 1-(4-Indolyl)-4-[1-(2-pyrrolylcarbonyl)-1,2,3,4-tetrahydroquinoline-2-ylmethyl]piperazine] | 9.2
CC(C)CC(=O)N1c2ccccc2CCC1CN1CCN(c2nccc3ccccc23)CC1 (stereo not drawn) [Example 75A, 1-(1-Isoquinolinyl)-4-[1-(3-methylbutanoyl)-1,2,3,4-tetrahydroquinolin-2-ylmethyl]piperazine] | 3.2
O=C(C1CCCCC1)N1c2ccccc2CCC1CN1CCN(c2ccc(F)cc2F)CC1 (stereo not drawn) [Example 72A18, 1-(1-Cyclohexanecarbonyl-1,2,3,4-tetrahydroquinolin-2-ylmethyl)-4-(2,4-difluorophenyl)piperazine] | 11
COc1ccc(C(=O)N2c3ccccc3CCC2CN2CCN(c3nccc4ccccc34)CC2)cc1 (stereo not drawn) [Example 75A5, 1-(1-Isoquinolinyl)-4-[1-(4-methoxybenzoyl)-1,2,3,4-tetrahydroquinolin-2-ylmethyl]piperazine] | 2.6
O=C(C1CCCCC1)N1c2ccccc2CCC1CN1CCCC(Cc2ccccc2)C1 (single isomer, unassigned) [Example 59, 3-Benzyl-1-(1-cyclohexanecarbonyl-1,2,3,4-tetrahydroquinoline-2-ylmethyl)piperidine] | 45.7
